Source: PubChem BioAssay AID1745844 (Carcinogenic Potency Database (CPDB), 2022)
Values joined by “and” are separate entries in the source; they are usually repeats but may differ in a detail not shown here. Identical values can stand only once.

Test system: rodent lifetime carcinogenesis bioassay, tumor incidence TD50
Assay: carcinogenic potency in animals, long-term in vivo studies, CPDB compilation (AID 1745844)
Conditions: inhaled

C=CC(=C)C
TD50 (mouse, strain B6C3F1, females, site: Harderian gland, lesion: adenoma, dosed 80 weeks, study length 105 weeks): 319 mg/kg/day
TD50 (mouse, strain B6C3F1, females, site: pituitary gland, lesion: pars distalis adenoma, dosed 80 weeks, study length 105 weeks): 247 mg/kg/day
TD50 (mouse, strain B6C3F1, females, site: spleen, lesion: hemangiosarcoma, dosed 80 weeks, study length 105 weeks): 682 mg/kg/day
TD50 (mouse, strain B6C3F1, males, site: Harderian gland, lesion: adenoma + carcinoma, dosed 26 weeks, study length 53 weeks): 96.8 mg/kg/day
TD50 (mouse, strain B6C3F1, males, site: Harderian gland, lesion: adenoma, dosed 26 weeks, study length 53 weeks): 96.8 mg/kg/day
TD50 (mouse, strain B6C3F1, males, site: Harderian gland, lesion: adenoma, dosed 40 weeks, study length 105 weeks): 739 mg/kg/day
TD50 (mouse, strain B6C3F1, males, site: Harderian gland, lesion: adenoma, dosed 80 weeks, study length 96 weeks): 711 mg/kg/day
TD50 (mouse, strain B6C3F1, males, site: Harderian gland, lesion: adenoma, dosed 80 weeks, study length 105 weeks): 881 mg/kg/day
TD50 (mouse, strain B6C3F1, males, site: Harderian gland, lesion: carcinoma, dosed 26 weeks, study length 53 weeks): 14700 mg/kg/day
TD50 (mouse, strain B6C3F1, males, site: Harderian gland, lesion: carcinoma, dosed 80 weeks, study length 96 weeks): 12800 mg/kg/day
TD50 (mouse, strain B6C3F1, males, site: Harderian gland, lesion: carcinoma, dosed 80 weeks, study length 105 weeks): 15000 mg/kg/day
TD50 (mouse, strain B6C3F1, males, site: any site (literature study), lesion: several types, types named in the paper, dosed 26 weeks, study length 53 weeks): 348 mg/kg/day
TD50 (mouse, strain B6C3F1, males, site: forestomach + Harderian gland + liver + lung, lesion: squamous-cell carcinoma + squamous-cell papilloma + adenoma + carcinoma + hepatocellular adenoma + hepatocellular carcinoma + alveol, dosed 26 weeks, study length 53 weeks): 355 mg/kg/day
TD50 (mouse, strain B6C3F1, males, site: forestomach, lesion: squamous-cell carcinoma + squamous-cell papilloma, dosed 26 weeks, study length 53 weeks): 1310 mg/kg/day
TD50 (mouse, strain B6C3F1, males, site: forestomach, lesion: squamous-cell carcinoma, dosed 26 weeks, study length 53 weeks): 4850 mg/kg/day
TD50 (mouse, strain B6C3F1, males, site: forestomach, lesion: squamous-cell carcinoma, dosed 80 weeks, study length 96 weeks): 25800 mg/kg/day
TD50 (mouse, strain B6C3F1, males, site: forestomach, lesion: squamous-cell carcinoma, dosed 80 weeks, study length 105 weeks): 22200 mg/kg/day
TD50 (mouse, strain B6C3F1, males, site: forestomach, lesion: squamous-cell papilloma, dosed 26 weeks, study length 53 weeks): 1860 mg/kg/day
TD50 (mouse, strain B6C3F1, males, site: forestomach, lesion: squamous-cell papilloma, dosed 40 weeks, study length 105 weeks): 15600 mg/kg/day
TD50 (mouse, strain B6C3F1, males, site: forestomach, lesion: squamous-cell papilloma, dosed 80 weeks, study length 96 weeks): 25800 mg/kg/day
TD50 (mouse, strain B6C3F1, males, site: forestomach, lesion: squamous-cell papilloma, dosed 80 weeks, study length 105 weeks): 45000 mg/kg/day
TD50 (mouse, strain B6C3F1, males, site: heart, lesion: hemangiosarcoma, dosed 40 weeks, study length 105 weeks): 32900 mg/kg/day
TD50 (mouse, strain B6C3F1, males, site: heart, lesion: hemangiosarcoma, dosed 80 weeks, study length 96 weeks): 25800 mg/kg/day
TD50 (mouse, strain B6C3F1, males, site: heart, lesion: hemangiosarcoma, dosed 80 weeks, study length 105 weeks): 39000 mg/kg/day
TD50 (mouse, strain B6C3F1, males, site: liver, lesion: hepatocellular adenoma + hepatoblastoma + hepatocellular carcinoma, dosed 26 weeks, study length 53 weeks): 183 mg/kg/day
TD50 (mouse, strain B6C3F1, males, site: liver, lesion: hepatocellular adenoma + hepatocellular carcinoma, dosed 26 weeks, study length 53 weeks): 183 mg/kg/day
TD50 (mouse, strain B6C3F1, males, site: liver, lesion: hepatocellular adenoma, dosed 26 weeks, study length 53 weeks): 150 mg/kg/day
TD50 (mouse, strain B6C3F1, males, site: liver, lesion: hepatocellular adenoma, dosed 40 weeks, study length 105 weeks): 1070 mg/kg/day
TD50 (mouse, strain B6C3F1, males, site: liver, lesion: hepatocellular adenoma, dosed 80 weeks, study length 96 weeks): 1760 mg/kg/day
TD50 (mouse, strain B6C3F1, males, site: liver, lesion: hepatocellular adenoma, dosed 80 weeks, study length 105 weeks): 1570 mg/kg/day
TD50 (mouse, strain B6C3F1, males, site: liver, lesion: hepatocellular carcinoma, dosed 26 weeks, study length 53 weeks): 1270 mg/kg/day
TD50 (mouse, strain B6C3F1, males, site: liver, lesion: hepatocellular carcinoma, dosed 40 weeks, study length 105 weeks): 2330 mg/kg/day
TD50 (mouse, strain B6C3F1, males, site: liver, lesion: hepatocellular carcinoma, dosed 80 weeks, study length 96 weeks): 3290 mg/kg/day
TD50 (mouse, strain B6C3F1, males, site: liver, lesion: hepatocellular carcinoma, dosed 80 weeks, study length 105 weeks): 4850 mg/kg/day
TD50 (mouse, strain B6C3F1, males, site: lung, lesion: alveolar/bronchiolar adenoma + alveolar/bronchiolar carcinoma, dosed 26 weeks, study length 53 weeks): 752 mg/kg/day
TD50 (mouse, strain B6C3F1, males, site: lung, lesion: alveolar/bronchiolar adenoma, dosed 26 weeks, study length 53 weeks): 836 mg/kg/day
TD50 (mouse, strain B6C3F1, males, site: lung, lesion: alveolar/bronchiolar adenoma, dosed 40 weeks, study length 105 weeks): 908 mg/kg/day
TD50 (mouse, strain B6C3F1, males, site: lung, lesion: alveolar/bronchiolar adenoma, dosed 80 weeks, study length 96 weeks): 4810 mg/kg/day
TD50 (mouse, strain B6C3F1, males, site: lung, lesion: alveolar/bronchiolar adenoma, dosed 80 weeks, study length 105 weeks): 1660 mg/kg/day
TD50 (mouse, strain B6C3F1, males, site: lung, lesion: alveolar/bronchiolar carcinoma, dosed 26 weeks, study length 53 weeks): 2790 mg/kg/day
TD50 (mouse, strain B6C3F1, males, site: lung, lesion: alveolar/bronchiolar carcinoma, dosed 40 weeks, study length 105 weeks): 9230 mg/kg/day
TD50 (mouse, strain B6C3F1, males, site: lung, lesion: alveolar/bronchiolar carcinoma, dosed 80 weeks, study length 96 weeks): 8410 mg/kg/day
TD50 (mouse, strain B6C3F1, males, site: lung, lesion: alveolar/bronchiolar carcinoma, dosed 80 weeks, study length 105 weeks): 6680 mg/kg/day
TD50 (mouse, strain B6C3F1, males, site: lymphoreticular system, lesion: histiocytic sarcoma, dosed 40 weeks, study length 105 weeks): 4430 mg/kg/day
TD50 (mouse, strain B6C3F1, males, site: lymphoreticular system, lesion: histiocytic sarcoma, dosed 80 weeks, study length 96 weeks): 3450 mg/kg/day
TD50 (mouse, strain B6C3F1, males, site: lymphoreticular system, lesion: histiocytic sarcoma, dosed 80 weeks, study length 105 weeks): 150000 mg/kg/day
TD50 (mouse, strain B6C3F1, males, site: spleen, lesion: hemangiosarcoma, dosed 80 weeks, study length 96 weeks): 25800 mg/kg/day
TD50 (rat, strain Fischer 344, females, site: any site (literature study), lesion: several types, types named in the paper, dosed 105 weeks, study length 105 weeks): 6940 mg/kg/day
TD50 (rat, strain Fischer 344, females, site: brain, meninges, lesion: granular-cell tumor, benign, dosed 105 weeks, study length 105 weeks): 40600 mg/kg/day
TD50 (rat, strain Fischer 344, females, site: brain, meninges, lesion: sarcoma, dosed 105 weeks, study length 105 weeks): 50800 mg/kg/day
carcinogen call (rat, strain Fischer 344, females, site: brain, lesion: astrocytoma, benign, dosed 105 weeks, study length 105 weeks): e
TD50 (rat, strain Fischer 344, females, site: brain, lesion: malignant glioma, dosed 105 weeks, study length 105 weeks): 30800 mg/kg/day
TD50 (rat, strain Fischer 344, females, site: brain, lesion: medulloblastoma, malignant, dosed 105 weeks, study length 105 weeks): 52800 mg/kg/day
TD50 (rat, strain Fischer 344, females, site: liver, lesion: hepatocellular adenoma + hepatoblastoma + hepatocellular carcinoma, dosed 105 weeks, study length 105 weeks): 25300 mg/kg/day
TD50 (rat, strain Fischer 344, females, site: mammary gland, lesion: fibroadenoma + fibroadenoma, multiple, dosed 105 weeks, study length 105 weeks): 3340 mg/kg/day
TD50 (rat, strain Fischer 344, females, site: mammary gland, lesion: fibroadenoma, multiple, dosed 105 weeks, study length 105 weeks): 206 mg/kg/day
TD50 (rat, strain Fischer 344, males, site: kidney + mammary gland + testis, lesion: tubule adenoma + carcinoma + fibroadenoma + fibroadenoma, multiple + interstitial-cell adenoma, bilateral + interstitial-cell aden, dosed 104 weeks, study length 104 weeks): 988 mg/kg/day
TD50 (rat, strain Fischer 344, males, site: kidney, lesion: tubule adenoma + tubule carcinoma, dosed 104 weeks, study length 104 weeks): 3150 mg/kg/day and 2290 mg/kg/day
TD50 (rat, strain Fischer 344, males, site: kidney, lesion: tubule adenoma, dosed 104 weeks, study length 104 weeks): 3150 mg/kg/day and 2290 mg/kg/day
TD50 (rat, strain Fischer 344, males, site: mammary gland, lesion: carcinoma + fibroadenoma, dosed 104 weeks, study length 104 weeks): 670 mg/kg/day
TD50 (rat, strain Fischer 344, males, site: mammary gland, lesion: carcinoma, dosed 104 weeks, study length 104 weeks): 7880 mg/kg/day
TD50 (rat, strain Fischer 344, males, site: mammary gland, lesion: fibroadenoma + fibroadenoma, multiple, dosed 104 weeks, study length 104 weeks): 655 mg/kg/day
TD50 (rat, strain Fischer 344, males, site: mammary gland, lesion: fibroadenoma, multiple, dosed 104 weeks, study length 104 weeks): 2220 mg/kg/day
TD50 (rat, strain Fischer 344, males, site: mammary gland, lesion: fibroadenoma, dosed 104 weeks, study length 104 weeks): 655 mg/kg/day
TD50 (rat, strain Fischer 344, males, site: testis, lesion: interstitial-cell adenoma, bilateral + interstitial-cell adenoma, dosed 104 weeks, study length 104 weeks): 914 mg/kg/day
TD50 (rat, strain Fischer 344, males, site: testis, lesion: interstitial-cell adenoma, dosed 26 weeks, study length 52 weeks): 316 mg/kg/day
